Assay results reported in patent US12390469B2, “SHP2 inhibitor monotherapy and uses thereof” (HUYABIO International, LLC, priority 2021, dated 2025).
“Also recorded” adds a separate entry of the source.

Assays:
KYSE 520 = experiment: Cell viability assay (CellTiter-Glo), KYSE 520; assay type: cell-based, human; conditions: Day 5, CellTiter-Glo
Experimental: (§1) Cell lines and maintenance: All cell lines used for in vitro and in vivo studies were supplied as part of Crown Biosciences cell bank except KYSE520, which was provided by HUYABIO. All cell lines were maintained according to source at 37° C. and 5% CO2 unless otherwise noted. Human Lung cancer cell lines NCI-H358, HCC827, Esophageal cancer cell line KYSE520, Stomach cancer cell line NCI-N87 and Mouse Colon cancer cell line MC38 were cultured in RPMI1640+10% FBS. Pancreatic cell line MiaPaca-2 was cultured in MDME+10% FBS+2.5% HS. Pancreatic cancer cell line CAPAN-1 was cultured in IMDM+20% FBS. Brain cancer cell line U87MG was cultured in MEM+0.01 mM NEAA+10% FBS. Lung cancer cell line HCC827-ER1 (Derived from HCC827 at Crown Biosciences) was cultured in RPMI1640+10% FBS+42 μM erlotinib. Lung cancer cell line NCI-H1975 (developed at Synthego Corporation) was cultured in RPMI1640+10% FBS+100 μg/ml Hygromycin (Sun, 2020).
(§2) Cell Viability Assay: For cell cytotoxicity assays, cells were plated in 96-well plates and plating densities were determined on the basis of Crown Biosciences Cell line Database. Cells were plated at 2000 cells/well. Twenty four hours after plating, cells were treated with inhibitors at the indicated compound concentrations. On Day 5, cells were lysed with CellTiter-Glo® Luminescent Cell Viability Assay reagent (Promega) and luminescence was read using the EnVision Multi-plate reader. To calculate IC50 values, a dose-response curve is generated using a nonlinear regression model with a sigmoidal dose response. The formula of surviving rate is shown below. IC50 values were automatically generated by GraphPad Prism 8.0. The results of these assays are depicted in FIG. 1 and Table 1, and further in FIG. 9A (HCC827-ER1) and 9B (NCI-H1975 (L858R/T790M/C797S)).

MIAPaCa-2 = experiment: Cell viability assay (CellTiter-Glo), MIAPaCa-2; assay type: cell-based; conditions: Day 5, CellTiter-Glo
Experimental: as §1
(§3) Cell Viability Assay: For cell cytotoxicity assays, cells were plated in 96-well plates and plating densities were determined on the basis of Crown Biosciences Cell line Database. Cells were plated at 2000 cells/well. […] On Day 5, cells were lysed with CellTiter-Glo® Luminescent Cell Viability Assay reagent (Promega) and luminescence was read using the EnVision Multi-plate reader. […]

NCI-N87 = experiment: Cell viability assay (CellTiter-Glo), NCI-N87; assay type: cell-based, human; conditions: Day 5, CellTiter-Glo
Experimental: as §1, §2

NCI-H358 = experiment: Cell viability assay (CellTiter-Glo), NCI-H358; assay type: cell-based, human; conditions: Day 5, CellTiter-Glo
Experimental: as §1, §2

Capan-1 = experiment: Cell viability assay (CellTiter-Glo), Capan-1; assay type: cell-based; conditions: Day 5, CellTiter-Glo
Experimental: as §1, §3

NCI-H1975 = experiment: Cell viability assay (CellTiter-Glo), NCI-H1975; assay type: cell-based; conditions: Day 5, CellTiter-Glo
Experimental: as §1, §2

U87MG = experiment: Cell viability assay (CellTiter-Glo), U87MG; assay type: cell-based; conditions: Day 5, CellTiter-Glo
Experimental: as §1, §2

HCC827 = experiment: Cell viability assay (CellTiter-Glo), HCC827; assay type: cell-based, human; conditions: Day 5, CellTiter-Glo
Experimental: as §1, §2

[1] = test system: lung cancer cell line HCC827-ER1; experiment: Cell viability assay, HCC827-ER1 (FIG. 9A); assay type: cell-based, human
Experimental: as §1, §3

[2] = test system: NCI-H1975 (L858R/T790M/C797S); experiment: Cell viability assay, Osimertinib resistant NCI-H1975 (FIG. 9B); assay type: cell-based
Experimental: as §1, §3

cancer cell lines = experiment: Cell proliferation assays, cell line panel (FIG. 1); assay type: cell-based; conditions: compared with GH21001 (TNO-155), RMC-4550, Cisplatin
Experimental: as §1, §3

KC/GRO = experiment: Cytokine detection assay (V-Plex Proinflammatory Panel 1 Mouse Kit) in plasma; assay type: in vivo; conditions: FIG. 11; tumor bearing animals, 2 hours post last dose; versus GH21001 (TNO-155) and RMC-4550; listed as Formula (Ia)
Experimental: Cytokine detection assay: V-Plex Proinflammatory Panel 1 Mouse Kit (Mesoscale Discovery) was used to determine cytokine levels in plasma isolated from tumor bearing animals 2 hours post last dose. Plasma from tumor bearing animals was analyzed as described by the manufacture's guidelines. Briefly, diluted plasma is introduced to the MSD plate pre-coated with capture antibodies to KC/GRO. After incubation, samples are washed and incubated with secondary detection antibody, (MSD SULFO-TAG™). Electrochemiluminescence detection from the assay is analyzed on the Meso Scale Discovery platform and cytokine levels calculated according to manufacturer's control samples.

MC38 tumors = experiment: Tumor and blood immunotyping (FACS) in MC38 model; assay type: in vivo, mouse
Experimental: All cell lines were maintained in culture and cells in exponential growth phase were harvested and quantitated by cell counter before tumor inoculation. MC38 tumor cells (1×10^6) in 0.1 ml of PBS were inoculated into the right front flank of female C57/Bl animals, mean tumor size approximately 112 mm^3 at the start of treatment. NCI-H1975 (EGFR L858R/[…]/C797S) tumor cells (1×10^7) in 0.1 ml of PBS mixed with Matrigel (1:1) inoculated into female NOD/SCID animals, mean tumor approximately 200 mm^3 at the start of treatment. HCC827-ER1 tumor cells (5×10^7) in 0.1 ml of PBS mixed with Matrigel (1:1) inoculated into female Balb/C Nude animals, mean tumor approximately 325 mm^3 at the start of treatment.
The date of randomization and treatment initiation was denoted as day 0. Tumor volumes were measured twice per week in two dimensions using a caliper, and the volume will be expressed in mm^3 using the formula: V=(L×W×W)/2, where V is tumor volume, L is tumor length (the longest tumor dimension) and W is tumor width (the longest tumor dimension perpendicular to L). Dosing volume was 10 mL/kg/day. GH21001 and GH21005 were dissolved in HP-β-CD with 200 ml of 50 mM sodium citrate (pH=4.2). Anti-PD-1 and Rat IgG2a were diluted in PBS. RMC-4550 was diluted in 1% Capitsol in 50 mM sodium citrate (pH=5.0) 0.5% dosing solution of osimertinib was diluted in 2% DMSO/30% PEG300. The results of these experiments are depicted in FIG. 2A-B (MC38 tumors) and FIG. 10A-10B (NCI-H1975 (L858R/T790M/C797S) tumors). The results for HCC827 CDX model are depicted in FIG. 12A-B. Upon termination, tumors were collected. A portion of the tumor was minced and snap frozen immediately for protein isolation or tumor tissue was dissociated for FACs analysis. Another portion of the tumor was fixed in 10% neutral buffered formalin prior to processing into paraffin blocks.
Tumor dissociation: Upon termination animals bearing MC38 tumors, tumors and blood was harvested 12 hours post last dose. Tumors were enzymatically and mechanically dissociated using The Tumor Dissociation Kit (130-096-730) Miltenyi Biotec MACS Technology. Mononuclear blood cells (PBMCs) were isolated from whole blood using Histopaque-1077 (Sigma).
Tumor cell suspension, whole lysed blood or isolated PBMCs were resuspended and blocked in staining buffer with 1 μg/ml Fc-Block (Mouse BD Fc Block™ CAT #553141). All antibodies were diluted in Fc Blocking buffer except FoxP3 which was diluted in Permeabilization Buffer. Antibodies were diluted according to Crown Biosciences optimization. Cell surface markers CD45, CD4, CD335, CD11b, Gr-1 were purchased from Biolegend. CD3 was purchased from BD Biosciences. CD8, FoxP3 and LD BD were purchased from eBiosciences. Data was collected on a cytometer and data was analyzed using Kaluza Analysis Software. The results of these experiments are depicted in FIG. 3 (macrophages), FIG. 4 (monocytes), FIG. 5 (granulocytes), FIG. 6 (CD3+ cells), FIG. 7 (CD4+ cells), and FIG. 8 (CD8+ cells).

Row | Compound | IC50 (KYSE 520) [nM] | IC50 (NCI-N87) [nM] | IC50 (NCI-H358) [nM] | IC50 (NCI-H1975) [nM] | IC50 (U87MG) [nM] | IC50 (HCC827) [nM] | IC50 (KYSE 520; Homo sapiens, 120 h) [nM] | IC50 (NCI-N87; Homo sapiens, 120 h) [nM] | IC50 (NCI-H358; Homo sapiens, 120 h) [nM] | IC50 (U87MG; Homo sapiens, U-87 MG, 120 h) [nM] | IC50 (HCC827; Homo sapiens, 120 h) [nM] | other results
1 | N.N.[Cl][Pt][Cl] [Cisplatin] | 6800 | 2350 | 4850 | 3990 | 1580 | 4790 | – | – | – | – | – | IC50 (MIAPaCa-2): 7150 nM; IC50 (Capan-1): 270 nM
2 | C[C@@H]1OCC2(CCN(c3cnc(Sc4cccc(NC(=O)c5c(O)nc6n(c5=O)CCCC6)c4Cl)cn3)CC2)[C@@H]1N [GH21005, N-(3-((5-((3S,4S)-4-amino-3-methyl-2-oxa-8-azaspiro[4.5]decan-8-yl)pyrazin-2-yl)thio)-2-chlorophenyl)-2-hydroxy-4-oxo-6,7,8,9-tetrahydro-4H-pyrido[1,2-a]pyrimidine-3-carboxamide] | – | – | – | – | – | – | 60 | 10 | 30 | 230 | 20 | IC50 (NCI-H1975; Homo sapiens, 120 h): 210 nM; viability of lung cancer cell line HCC827-ER1 [1]: reduces viability; viability of Osimertinib resistant cancer cell line NCI-H1975 (L858R/T790M/C797S) [2]: reduces viability; potency in cell proliferation assays versus other agents (cancer cell lines): greater potency in cell proliferation assays than other agents; KC/GRO level in plasma (KC/GRO): significantly reduced KC/GRO as compared to GH21001 (TNO-155) and RMC-4550; also recorded: reduces KC/GRO significantly more than GH21001 (TNO-155) and RMC-4550; macrophage populations in MC38 tumors (MC38 tumors; FIG. 3, harvested 12 hours post last dose): reduces macrophage populations; monocyte populations in MC38 tumors (MC38 tumors; FIG. 4, harvested 12 hours post last dose): increases monocyte populations; granulocyte populations in MC38 tumors (MC38 tumors; FIG. 5, harvested 12 hours post last dose): increases granulocyte populations; circulating CD3+ cell populations (MC38 tumors; FIG. 6, MC38 model, blood 12 hours post last dose): increases circulating CD3+ cell populations; circulating CD4+ cell populations (MC38 tumors; FIG. 7, MC38 model, blood 12 hours post last dose): increases circulating CD4+ cell populations; circulating CD8+ cell populations (MC38 tumors; FIG. 8, MC38 model, blood 12 hours post last dose): increases circulating CD8+ cell populations
3 | C[C@@H]1OCC2(CCN(c3cnc(Sc4ccnc(N)c4Cl)c(N)n3)CC2)[C@@H]1N [GH21001] | – | – | – | – | – | – | 450 | 230 | 460 | 1530 | 410 | IC50 (Capan-1; Homo sapiens, 120 h): 6060 nM
4 | Cc1nc(N2CCC3(CC2)CO[C@@H](C)[C@H]3N)c(CO)nc1-c1cccc(Cl)c1Cl [RMC-4550] | 490 | 260 | 440 | 1440 | 3900 | 690 | – | – | – | – | – | –
